19 molecules from US20240132521A1, “COMPOUNDS AND METHODS FOR MODULATING HER2” (Iambic Therapeutics, Inc., priority 2022, published 2024) can be followed below.

What all share (type): cell-based
One experiment has as its target BaF3_EGFRWT cells (Homo sapiens, UniProt P00533). Kind of experiment: Cell growth inhibition assay (CellTiterGlo), BaF3_EGFRWT. (In general: ATP-based viability assays read luminescence as a measure of living cells.)
For a further experiment, the target named is BaF3_HER2WT cells (Homo sapiens, UniProt P04626). In words: Cell growth inhibition assay (CellTiterGlo), BaF3_HER2WT.
The target of the next experiment is BaF3_HER2YVMA cells (Homo sapiens, UniProt P04626, DUP772-775, cells depend on it). Kind of experiment: Cell growth inhibition assay (CellTiterGlo), BaF3_HER2YVMA.
[1] abbreviates: cell growth inhibition, 80 ng/mL EGF, 3 days treatment, read-out: EGFR WT IC50.
Setting [2] is: cell growth inhibition, 3 days treatment, read-out: HER2 WT IC50.
The mark [3] stands for this setting: cell growth inhibition, 3 days treatment, read-out: HER2 - YVMA IC50.
[4] abbreviates: 3-day treatment, CellTiterGlo, read-out: Cell growth inhibition activity, EGFR WT.
[5] abbreviates: 3-day treatment, CellTiterGlo, read-out: Cell growth inhibition activity, HER2 WT.
Setting [6] is: 3-day treatment, CellTiterGlo, read-out: Cell growth inhibition activity, HER2 - YVMA.

Read-outs that look alike come from different tables or passages of the source.

Chain of BaF3_HER2WT cells (P04626 whole entry, change not shown): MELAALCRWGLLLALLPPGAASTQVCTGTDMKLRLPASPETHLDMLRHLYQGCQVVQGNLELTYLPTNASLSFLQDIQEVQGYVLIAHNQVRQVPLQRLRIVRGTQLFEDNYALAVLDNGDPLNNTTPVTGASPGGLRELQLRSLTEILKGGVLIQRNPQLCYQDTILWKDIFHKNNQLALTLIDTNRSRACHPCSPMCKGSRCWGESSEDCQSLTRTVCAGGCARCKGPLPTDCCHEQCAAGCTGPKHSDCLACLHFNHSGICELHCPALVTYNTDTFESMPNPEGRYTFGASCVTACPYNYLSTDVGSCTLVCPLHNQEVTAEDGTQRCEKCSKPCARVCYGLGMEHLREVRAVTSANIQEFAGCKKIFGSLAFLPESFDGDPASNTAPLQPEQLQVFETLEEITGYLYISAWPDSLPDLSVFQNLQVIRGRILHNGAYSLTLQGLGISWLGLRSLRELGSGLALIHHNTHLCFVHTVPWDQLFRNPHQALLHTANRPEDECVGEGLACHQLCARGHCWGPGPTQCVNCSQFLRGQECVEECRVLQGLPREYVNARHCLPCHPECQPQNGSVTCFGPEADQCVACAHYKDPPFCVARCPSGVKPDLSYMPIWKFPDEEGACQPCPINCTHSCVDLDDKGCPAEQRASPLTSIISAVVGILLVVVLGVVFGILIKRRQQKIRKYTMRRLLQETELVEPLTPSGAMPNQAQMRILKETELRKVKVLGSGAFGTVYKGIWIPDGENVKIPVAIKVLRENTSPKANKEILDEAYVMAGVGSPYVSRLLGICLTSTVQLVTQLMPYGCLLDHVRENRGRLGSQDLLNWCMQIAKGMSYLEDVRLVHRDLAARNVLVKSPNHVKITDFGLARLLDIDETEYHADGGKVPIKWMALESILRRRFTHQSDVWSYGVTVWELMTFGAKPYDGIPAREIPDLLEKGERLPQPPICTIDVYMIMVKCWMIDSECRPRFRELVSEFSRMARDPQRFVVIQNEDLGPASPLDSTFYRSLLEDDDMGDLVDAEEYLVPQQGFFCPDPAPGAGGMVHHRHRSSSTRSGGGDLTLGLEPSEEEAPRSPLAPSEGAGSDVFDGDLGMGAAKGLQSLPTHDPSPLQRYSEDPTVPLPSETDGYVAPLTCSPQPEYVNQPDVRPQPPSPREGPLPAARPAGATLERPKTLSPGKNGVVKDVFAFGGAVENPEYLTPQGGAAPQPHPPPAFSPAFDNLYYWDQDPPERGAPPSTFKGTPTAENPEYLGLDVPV
Chain of BaF3_HER2YVMA cells (P04626 with tags, fused parts or gaps DUP772-775): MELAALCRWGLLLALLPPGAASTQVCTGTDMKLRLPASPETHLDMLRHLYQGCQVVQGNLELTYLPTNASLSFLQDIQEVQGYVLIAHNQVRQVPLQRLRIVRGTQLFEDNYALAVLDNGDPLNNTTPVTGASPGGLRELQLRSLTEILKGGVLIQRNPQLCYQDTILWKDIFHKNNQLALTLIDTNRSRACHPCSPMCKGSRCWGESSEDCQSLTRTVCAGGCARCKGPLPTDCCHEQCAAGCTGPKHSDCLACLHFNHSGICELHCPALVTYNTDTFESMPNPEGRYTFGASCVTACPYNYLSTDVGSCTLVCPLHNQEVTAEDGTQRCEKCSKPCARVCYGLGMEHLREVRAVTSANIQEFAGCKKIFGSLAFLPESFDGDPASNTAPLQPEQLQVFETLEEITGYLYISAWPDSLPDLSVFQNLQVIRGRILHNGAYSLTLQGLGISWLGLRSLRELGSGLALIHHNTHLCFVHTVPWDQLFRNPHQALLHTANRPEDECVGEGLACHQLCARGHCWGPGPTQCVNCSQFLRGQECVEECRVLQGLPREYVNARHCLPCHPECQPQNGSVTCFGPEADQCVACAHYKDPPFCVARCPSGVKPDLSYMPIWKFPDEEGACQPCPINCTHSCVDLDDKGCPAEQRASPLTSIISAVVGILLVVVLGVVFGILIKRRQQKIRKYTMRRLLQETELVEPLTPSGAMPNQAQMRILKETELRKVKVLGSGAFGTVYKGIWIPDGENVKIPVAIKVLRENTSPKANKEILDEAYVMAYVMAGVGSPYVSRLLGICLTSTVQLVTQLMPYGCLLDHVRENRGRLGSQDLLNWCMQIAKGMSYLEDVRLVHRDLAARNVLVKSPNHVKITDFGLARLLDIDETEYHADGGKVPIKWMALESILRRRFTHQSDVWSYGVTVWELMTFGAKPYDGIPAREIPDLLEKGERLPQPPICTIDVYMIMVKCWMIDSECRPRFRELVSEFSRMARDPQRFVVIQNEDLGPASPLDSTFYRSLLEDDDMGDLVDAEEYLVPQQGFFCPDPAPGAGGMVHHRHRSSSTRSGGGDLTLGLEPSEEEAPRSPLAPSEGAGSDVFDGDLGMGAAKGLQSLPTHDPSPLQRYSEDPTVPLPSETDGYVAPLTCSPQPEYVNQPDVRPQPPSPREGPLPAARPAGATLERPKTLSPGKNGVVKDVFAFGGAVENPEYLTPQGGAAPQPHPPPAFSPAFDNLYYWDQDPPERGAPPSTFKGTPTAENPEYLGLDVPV
Chain of BaF3_EGFRWT cells (P00533 whole entry, change not shown): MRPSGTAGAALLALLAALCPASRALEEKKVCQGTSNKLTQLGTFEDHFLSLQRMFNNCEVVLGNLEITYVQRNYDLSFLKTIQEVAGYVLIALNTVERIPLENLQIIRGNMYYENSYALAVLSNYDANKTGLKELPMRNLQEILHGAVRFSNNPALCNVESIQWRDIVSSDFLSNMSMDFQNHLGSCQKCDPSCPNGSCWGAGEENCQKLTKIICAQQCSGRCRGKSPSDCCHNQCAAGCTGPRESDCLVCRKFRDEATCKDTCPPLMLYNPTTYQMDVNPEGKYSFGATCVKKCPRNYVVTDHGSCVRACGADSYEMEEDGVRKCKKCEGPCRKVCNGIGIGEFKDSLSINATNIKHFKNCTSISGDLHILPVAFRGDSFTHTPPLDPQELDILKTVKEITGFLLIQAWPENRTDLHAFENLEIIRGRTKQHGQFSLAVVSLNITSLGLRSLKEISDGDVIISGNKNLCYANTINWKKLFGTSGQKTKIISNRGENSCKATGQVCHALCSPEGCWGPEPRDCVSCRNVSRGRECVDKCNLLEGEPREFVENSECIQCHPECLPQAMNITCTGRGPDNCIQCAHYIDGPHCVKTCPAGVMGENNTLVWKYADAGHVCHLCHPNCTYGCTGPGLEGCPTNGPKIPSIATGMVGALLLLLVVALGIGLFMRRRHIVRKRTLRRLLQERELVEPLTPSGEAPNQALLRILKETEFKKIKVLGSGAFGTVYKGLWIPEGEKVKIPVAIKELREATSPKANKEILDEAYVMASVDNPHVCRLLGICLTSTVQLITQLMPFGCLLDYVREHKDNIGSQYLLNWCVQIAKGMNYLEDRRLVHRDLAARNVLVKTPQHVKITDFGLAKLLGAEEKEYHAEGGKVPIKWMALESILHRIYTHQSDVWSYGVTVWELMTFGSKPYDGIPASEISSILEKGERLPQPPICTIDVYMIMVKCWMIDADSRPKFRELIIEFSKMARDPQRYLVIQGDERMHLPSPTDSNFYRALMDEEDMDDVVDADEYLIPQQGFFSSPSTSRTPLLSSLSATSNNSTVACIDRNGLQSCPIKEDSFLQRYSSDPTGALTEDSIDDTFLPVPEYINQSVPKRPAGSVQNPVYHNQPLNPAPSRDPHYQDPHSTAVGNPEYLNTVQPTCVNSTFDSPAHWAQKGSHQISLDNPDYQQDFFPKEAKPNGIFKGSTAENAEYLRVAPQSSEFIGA

Turning to `C=C(CN(C)C)C(=O)N1CC2CCC1CC2c1ccn2ncnc(Nc3ccc(Oc4ccn5ncnc5c4)c(C)c3)c12` (single isomer, unassigned) [Examples 135 and 136, second eluting isomer, 1-(5-(4-((4-([1,2,4]triazolo[1,5-a]pyridin-7-yloxy)-3-methylphenyl)amino)pyrrolo[2,1-f][1,2,4]triazin-5-yl)-2-azabicyclo[2.2.2]octan-2-yl)-2-((dimethylamino)methyl)prop-2-en-1-one], the GI50 on BaF3_EGFRWT cells (setting [1]) is less than 200 nM; at BaF3_HER2WT cells (setting [2]) it was less than 200 nM; on BaF3_HER2YVMA cells (setting [3]), 200 to 500 nM.
On to `Cc1cc(Nc2ncnn3ccc(C4CC5CCC4CN5C(=O)/C=C/CN(C)C)c23)ccc1Oc1ccn2ncnc2c1` (single isomer, unassigned) [Examples 137 and 138, second eluting isomer, (E)-1-(5-(4-((4-([1,2,4]triazolo[1,5-a]pyridin-7-yloxy)-3-methylphenyl)amino)pyrrolo[2,1-f][1,2,4]triazin-5-yl)-2-azabicyclo[2.2.2]octan-2-yl)-4-(dimethylamino)but-2-en-1-one], for which the GI50 at BaF3_EGFRWT cells (setting [1]) lay within 1500 to 5000 nM; at BaF3_HER2WT cells (setting [2]) it was 500 to 1500 nM; at BaF3_HER2YVMA cells (setting [3]), 1500 to 5000 nM.
On to `C=CC(=O)N1CC2CCC1CC2c1ccn2ncnc(Nc3ccc(Oc4ccn5ncnc5c4)c(C)c3)c12` (single isomer, unassigned) [Examples 139 and 140, first eluting isomer, 1-(5-(4-((4-([1,2,4]triazolo[1,5-a]pyridin-7-yloxy)-3-methylphenyl)amino)pyrrolo[2,1-f][1,2,4]triazin-5-yl)-2-azabicyclo[2.2.2]octan-2-yl)prop-2-en-1-one], for which the GI50 is 1500 to 5000 nM at BaF3_EGFRWT cells (setting [1]), less than 200 nM at BaF3_HER2WT cells (setting [2]) and less than 200 nM on BaF3_HER2YVMA cells (setting [3]).
On to `C=CC(=O)N1CC2CCC1CC2c1ccn2ncnc(Nc3ccc(Oc4ccn5ncnc5c4)c(C)c3)c12` (single isomer, unassigned) [Examples 139 and 140, second eluting isomer, 1-(5-(4-((4-([1,2,4]triazolo[1,5-a]pyridin-7-yloxy)-3-methylphenyl)amino)pyrrolo[2,1-f][1,2,4]triazin-5-yl)-2-azabicyclo[2.2.2]octan-2-yl)prop-2-en-1-one], for which the values for the GI50 at BaF3_EGFRWT cells (setting [1]), at BaF3_HER2WT cells (setting [2]) and at BaF3_HER2YVMA cells (setting [3]) were 1500 to 5000 nM, 500 to 1500 nM and 1500 to 5000 nM, respectively.
For `C=C(CN(C)C)C(=O)N1CCCC(c2ccn3ncnc(Nc4ccc(Oc5ccn6ncnc6c5)c(C)c4)c23)CC1` (single isomer, unassigned) [Examples 143 and 144, first eluting isomer, 1-(4-(4-((4-([1,2,4]triazolo[1,5-a]pyridin-7-yloxy)-3-methylphenyl)amino)pyrrolo[2,1-f][1,2,4]triazin-5-yl)azepan-1-yl)-2-((dimethylamino)methyl)prop-2-en-1-one], the GI50 was 1500 to 5000 nM on BaF3_EGFRWT cells (setting [1]), less than 200 nM at BaF3_HER2WT cells (setting [2]) and 500 to 1500 nM on BaF3_HER2YVMA cells (setting [3]).
In the same order, the values of `C=C(CN(C)C)C(=O)N1CCCC(c2ccn3ncnc(Nc4ccc(Oc5ccn6ncnc6c5)c(C)c4)c23)CC1` (single isomer, unassigned) [Examples 143 and 144, second eluting isomer, 1-(4-(4-((4-([1,2,4]triazolo[1,5-a]pyridin-7-yloxy)-3-methylphenyl)amino)pyrrolo[2,1-f][1,2,4]triazin-5-yl)azepan-1-yl)-2-((dimethylamino)methyl)prop-2-en-1-one] are 1500 to 5000 nM, less than 200 nM and less than 200 nM.
In the same order, the values of `Cc1cc(Nc2ncnn3ccc(C4CCCN(C(=O)C(F)Cl)CC4)c23)ccc1Oc1ccn2ncnc2c1` (single isomer, unassigned) [Examples 145, 146, 147 and 148, first eluting isomer, 1-(4-(4-((4-([1,2,4]triazolo[1,5-a]pyridin-7-yloxy)-3-methylphenyl)amino)pyrrolo[2,1-f][1,2,4]triazin-5-yl)azepan-1-yl)-2-chloro-2-fluoroethan-1-one] are 1500 to 5000 nM, less than 200 nM and 200 to 500 nM.
In the same order, the values of `Cc1cc(Nc2ncnn3ccc([C@@H]4CCCN(C(=O)[C@H](F)Cl)CC4)c23)ccc1Oc1ccn2ncnc2c1` (single isomer, unassigned) [Examples 145, 146, 147 and 148, fourth eluting isomer] are 1500 to 5000 nM, 200 to 500 nM and 500 to 1500 nM.
Regarding `Cc1cc(Nc2ncnn3ccc(C4CCCN(C(=O)C(F)Cl)CC4)c23)ccc1Oc1ccn2ncnc2c1` (single isomer, unassigned) [Examples 145, 146, 147 and 148, second eluting isomer, 1-(4-(4-((4-([1,2,4]triazolo[1,5-a]pyridin-7-yloxy)-3-methylphenyl)amino)pyrrolo[2,1-f][1,2,4]triazin-5-yl)azepan-1-yl)-2-chloro-2-fluoroethan-1-one], the GI50 at BaF3_EGFRWT cells (setting [1]) is 500 to 1500 nM; at BaF3_HER2WT cells (setting [2]), less than 200 nM; at BaF3_HER2YVMA cells (setting [3]), less than 200 nM.
Regarding `Cc1cc(Nc2ncnn3ccc(C4CCCN(C(=O)C(F)Cl)CC4)c23)ccc1Oc1ccn2ncnc2c1` (single isomer, unassigned) [Examples 145, 146, 147 and 148, third eluting isomer, 1-(4-(4-((4-([1,2,4]triazolo[1,5-a]pyridin-7-yloxy)-3-methylphenyl)amino)pyrrolo[2,1-f][1,2,4]triazin-5-yl)azepan-1-yl)-2-chloro-2-fluoroethan-1-one], the GI50 is 1500 to 5000 nM at BaF3_EGFRWT cells (setting [1]), 200 to 500 nM at BaF3_HER2WT cells (setting [2]) and 500 to 1500 nM on BaF3_HER2YVMA cells (setting [3]).
Consider `Cc1cc(Nc2ncnn3ccc(C4CN(C(=O)/C=C/C5CCCN5C)C4)c23)ccc1Oc1ccn2ncnc2c1` (single isomer, unassigned) [Examples 171 and 172, second eluting isomer, (E)-1-(3-(4-((4-([1,2,4]triazolo[1,5-a]pyridin-7-yloxy)-3-methylphenyl)amino)pyrrolo[2,1-f][1,2,4]triazin-5-yl)azetidin-1-yl)-3-(1-methylpyrrolidin-2-yl)prop-2-en-1-one], for which the figures for the GI50 at BaF3_EGFRWT cells (setting [1]), on BaF3_HER2WT cells (setting [2]) and on BaF3_HER2YVMA cells (setting [3]) were 1500 to 5000 nM, less than 200 nM and less than 200 nM, respectively.
As for `Cc1cc(Nc2ncnn3ccc(C4CCN(C(=O)[C@H](F)Cl)CC4)c23)ccc1Oc1ccn2ncnc2c1` (single isomer, unassigned) [Examples 173 and 174, first eluting isomer], the GI50 lay in the range of 1500 to 5000 nM on BaF3_EGFRWT cells (setting [1]), 200 to 500 nM at BaF3_HER2WT cells (setting [2]) and 1500 to 5000 nM at BaF3_HER2YVMA cells (setting [3]).
Consider `Cc1cc(Nc2ncnn3ccc(C4CC5CCC4CN5C(=O)/C=C/CN(C)C)c23)ccc1Oc1ccn2ncnc2c1` (single isomer, unassigned; first eluting) [Examples 137 and 138, first eluting isomer], for which the results for the GI50 at BaF3_EGFRWT cells (setting [1]), at BaF3_HER2WT cells (setting [2]) and at BaF3_HER2YVMA cells (setting [3]) were 1500 to 5000 nM, less than 200 nM and 200 to 500 nM, respectively.
In the same order, the values of `Cc1cc(Nc2ncnn3ccc(C4CCN(C(=O)[C@@H](F)Cl)CC4)c23)ccc1Oc1ccn2ncnc2c1` (single isomer, unassigned; second eluting) [Examples 173 and 174, second eluting isomer, (5)-1-(4-(4-((4-([1,2,4]triazolo[1,5-a]pyridin-7-yloxy)-3-methylphenyl)amino)pyrrolo[2,1-f][1,2,4]triazin-5-yl)piperidin-1-yl)-2-chloro-2-fluoroethan-1-one] are 1500 to 5000 nM, less than 200 nM and less than 200 nM.
Regarding `C=CC(=O)N1CC(c2ccn3ncnc(Nc4ccc(Oc5ccn6ncnc6c5)c(C)c4)c23)C1` [Example 3, 1-(3-(4-((4-([1,2,4]triazolo[1,5-a]pyridin-7-yloxy)-3-methylphenyl)amino)pyrrolo[2,1-f][1,2,4]triazin-5-yl)azetidin-1-yl)prop-2-en-1-one], the GI50 on BaF3_EGFRWT cells (setting [4]) is 500 to 1500 nM; at BaF3_HER2WT cells (setting [5]), less than 200 nM; on BaF3_HER2YVMA cells (setting [6]), less than 200 nM.
Take `C=CC(=O)N1CCCC(c2ccn3ncnc(Nc4ccc(Oc5ccn6ncnc6c5)c(C)c4)c23)CC1` (stereo not drawn) [Example 9, 1-(4-(4-((4-([1,2,4]triazolo[1,5-a]pyridin-7-yloxy)-3-methylphenyl)amino)pyrrolo[2,1-f][1,2,4]triazin-5-yl)azepan-1-yl)prop-2-en-1-one]: the GI50 was 200 to 500 nM at BaF3_EGFRWT cells (setting [4]), less than 200 nM on BaF3_HER2WT cells (setting [5]) and less than 200 nM on BaF3_HER2YVMA cells (setting [6]).
In the case of `C=CC(=O)N1CC2(C1)CN(c1ccn3ncnc(Nc4cnc(Oc5ccn6ncnc6c5)c(Cl)c4)c13)C2` [Example 15, 1-(6-(4-((6-([1,2,4]triazolo[1,5-a]pyridin-7-yloxy)-5-chloropyridin-3-yl)amino)pyrrolo[2,1-f][1,2,4]triazin-5-yl)-2,6-diazaspiro[3.3]heptan-2-yl)prop-2-en-1-one], the GI50 at BaF3_EGFRWT cells (setting [4]) was 1500 to 5000 nM; on BaF3_HER2WT cells (setting [5]), 1500 to 5000 nM; on BaF3_HER2YVMA cells (setting [6]), more than 5000 nM.
For `C=CC(=O)N1CC2(CC(c3ccn4ncnc(Nc5ccc(Oc6ccn7ncnc7c6)c(C)c5)c34)C2)C1` [Example 17, 1-(6-(4-((4-([1,2,4]triazolo[1,5-a]pyridin-7-yloxy)-3-methylphenyl)amino)pyrrolo[2,1-f][1,2,4]triazin-5-yl)-2-azaspiro[3.3]heptan-2-yl)prop-2-en-1-one], the values for the GI50 on BaF3_EGFRWT cells (setting [4]), at BaF3_HER2WT cells (setting [5]) and at BaF3_HER2YVMA cells (setting [6]) were 1500 to 5000 nM, less than 200 nM and less than 200 nM, respectively.
Turning to `C=C(C(=O)O)C(=O)N1CCC(c2ccn3ncnc(Nc4ccc(Oc5ccn6ncnc6c5)c(C)c4)c23)CC1` [Example 20, 2-(4-(4-((4-([1,2,4]triazolo[1,5-a]pyridin-7-yloxy)-3-methylphenyl)amino)pyrrolo[2,1-f][1,2,4]triazin-5-yl)piperidine-1-carbonyl)acrylic acid], the GI50 at BaF3_EGFRWT cells (setting [4]), at BaF3_HER2WT cells (setting [5]) and on BaF3_HER2YVMA cells (setting [6]) was 1500 to 5000 nM throughout.
